According to ChEMBL document CHEMBL1201862, “PubChem BioAssay data set” (2004):
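96-well plates; 48 h exposure; 5 concentrations. Endpoints by linear interpolation between flanking doses. Not reached: highest tested concentration assigned. GI50: concentration for 50% inhibition of growth.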 Activity calls are given as the source filed them. Rule as the data show it: active = GI50 up to about 1.1 µM and inactive = higher.

Key:
Assay in all cases: inhibition of tumour cell growth, NCI panel, 48 h
[1] = tested on: SF-268
[2] = tested on: A549
[3] = tested on: M14
[4] = tested on: EKVX
[5] = tested on: HCC 2998
[6] = tested on: OVCAR-3
[7] = tested on: CAKI-1
[8] = tested on: SK-MEL-5
[9] = tested on: SNB-19
[10] = tested on: UO-31
[11] = tested on: MDA-MB-435
[12] = tested on: HT-29
[13] = tested on: KM12
[14] = tested on: NCI-H522
[15] = tested on: MDA-N
[16] = tested on: MDA-MB-231
[17] = tested on: NCI-H23
[18] = tested on: BT-549
[19] = tested on: LOX IMVI

| Structure (SMILES) | GI50 [1] | GI50 [2] | GI50 [3] | GI50 [4] | GI50 [5] | GI50 [6] | GI50 [7] | GI50 [8] | GI50 [9] | GI50 [10] | GI50 [11] | GI50 [12] | GI50 [13] | GI50 [14] | GI50 [15] | GI50 [16] | GI50 [17] | GI50 [18] | GI50 [19] |
| --- | --- | --- | --- | --- | --- | --- | --- | --- | --- | --- | --- | --- | --- | --- | --- | --- | --- | --- | --- |
| CC1=C(Nc2c(C)cc(O)cc2O)C(=O)C=c2oc3c(c21)C(C)=C(Nc1c(C)cc(O)cc1O)C(=O)C=3 | 45.5 µM (inactive) | 38.5 µM (inactive) | 28.8 µM (inactive) | 47.5 µM (inactive) | 23.2 µM (inactive) | 15.6 µM (inactive) | > 100 µM (inactive) | 17.2 µM (inactive) | 35.8 µM (inactive) | 50.8 µM (inactive) | 15.9 µM (inactive) | 28 µM (inactive) | 28.9 µM (inactive) | 20.1 µM (inactive) | 18.6 µM (inactive) | 36.6 µM (inactive) | 20.3 µM (inactive) | 32.9 µM (inactive) |  |
| CCc1n[nH]c(=O)n1/N=C/c1c(O)ccc2ccccc12 | > 100 µM (inactive) | > 100 µM (inactive) | > 100 µM (inactive) | > 100 µM (inactive) | > 100 µM (inactive) | > 100 µM (inactive) |  | > 100 µM (inactive) | > 100 µM (inactive) | > 100 µM (inactive) | > 100 µM (inactive) |  | > 100 µM (inactive) | > 100 µM (inactive) | > 100 µM (inactive) | > 100 µM (inactive) | > 100 µM (inactive) | > 100 µM (inactive) | > 100 µM (inactive) |
| CN1CCC23c4c5ccc(Oc6nnnn6-c6ccccc6)c4OC2c2[nH]c4ccccc4c2CC3(O)C1C5 (configuration not stated) | 6.89 µM (inactive) | 3.96 µM (inactive) | 1.85 µM (inactive) | 9.64 µM (inactive) | 1.81 µM (inactive) | 9.4 µM (inactive) | 2.16 µM (inactive) | 2.29 µM (inactive) | 7.66 µM (inactive) | 1.75 µM (inactive) | 4.01 µM (inactive) | 2.38 µM (inactive) | 2.82 µM (inactive) | 2 µM (inactive) | 1.73 µM (inactive) | 1.81 µM (inactive) | 16.3 µM (inactive) | 16.5 µM (inactive) | 1.89 µM (inactive) |
| COC(=O)/C=C\C(C#N)(C#N)/N=C/c1sccc1C | 12.3 µM (inactive) | 15 µM (inactive) | 2.28 µM (inactive) | 3.59 µM (inactive) | 15.2 µM (inactive) | 5.05 µM (inactive) | 1.93 µM (inactive) | 1.55 µM (inactive) | 17.3 µM (inactive) | 1.77 µM (inactive) | 3.58 µM (inactive) | 1.73 µM (inactive) | 16.2 µM (inactive) | 0.268 µM (active) | 3.59 µM (inactive) | 0.589 µM (active) | 7.03 µM (inactive) | 3.15 µM (inactive) | 1.3 µM (inactive) |
| O=c1[nH]c2[nH]c(-c3ccc(Br)cc3)cc2c2ccccc12 | 86.9 µM (inactive) |  |  | 5.58 µM (inactive) | > 100 µM (inactive) | > 100 µM (inactive) | 61.1 µM (inactive) | > 100 µM (inactive) | 29.4 µM (inactive) | > 100 µM (inactive) | > 100 µM (inactive) | 35.6 µM (inactive) | > 100 µM (inactive) | > 100 µM (inactive) | > 100 µM (inactive) | 15 µM (inactive) | > 100 µM (inactive) | 76.4 µM (inactive) | > 10 µM (inactive) |
| CCCNC(=S)N/C=C1\C(=O)Nc2ccccc2C1=O | > 100 µM (inactive) | > 100 µM (inactive) | > 100 µM (inactive) | > 100 µM (inactive) | > 100 µM (inactive) | > 100 µM (inactive) | > 100 µM (inactive) | > 100 µM (inactive) | > 100 µM (inactive) | > 100 µM (inactive) | > 100 µM (inactive) | > 100 µM (inactive) | > 100 µM (inactive) | > 100 µM (inactive) | > 100 µM (inactive) | > 100 µM (inactive) | > 100 µM (inactive) | > 100 µM (inactive) | > 100 µM (inactive) |
| CC(=O)N1N(c2ccc([N+](=O)[O-])cc2)C(=O)C1(C)C | 29.4 µM (inactive) | > 10 µM (inactive) | 10.8 µM (inactive) | 17.3 µM (inactive) | 15.8 µM (inactive) | 19.3 µM (inactive) |  | 16.9 µM (inactive) | 50.4 µM (inactive) | 17.1 µM (inactive) | 20.6 µM (inactive) | 16.6 µM (inactive) | 16.7 µM (inactive) | 12.1 µM (inactive) | 30.5 µM (inactive) | 20.1 µM (inactive) | 16.7 µM (inactive) | 11.9 µM (inactive) | 11.6 µM (inactive) |
